In US20210290721A1, “ORAL FORMULATIONS FOR PROMOTING CELLULAR PURIFICATION” (NSE Products, Inc., priority 2011, published 2021):

Legend:
iNOS/Nos2 = test: RT-qPCR expression of iNOS/Nos2 in lung of young mice; assay type: in vivo, C57BL/6J mice; conditions: diet supplemented from 8 to 22 weeks of age, treated vs YC
Excerpt: C57BL/6J mice were obtained at 6 weeks of age and individually housed in shoebox cages and provided with 24 grams (˜84 kcal) of AIN-93^M diet per week (7 grams on Monday and Wednesday and 10 grams on Friday). Starting at 8 weeks of age and continuing until 22 weeks of age, mice were either 1) maintained on the AIN93^M diet (Young Controls, YC); 2) fed a Calorie Restricted (CR) diet providing 63 kcal/week of a modified AIN93^M formulation; or 3) were assigned to an AIN93^M diet supplemented with one of several plant extracts, vitamins or phytochemicals; the amount of each ingredient per kilogram diet varied depending on the experimental ingredient studied. At 22 weeks of age, tissues were collected from mice, flash-frozen in liquid nitrogen and stored at −80° C. for later analysis.
To determine if CR or an ingredient positively influenced the Nrf2 pathway to regulate expression of xenobiotic metabolism genes and oxidative stress genes and/or positively influenced genes responsible for regulation of inflammation, we performed quantitative real-time PCR (RT-qPCR) analysis on RNA isolated from entire livers and lungs from all groups of mice. Briefly, the magnitude of change was determined for each gene, comparing the young control (YC) group vs. the caloric or energy restriction (CR) group and YC vs. Treated mice. […]

GCLC = test: RT-qPCR expression of GCLC in gastrocnemius muscle of old mice; assay type: in vivo, B6C3F1 mice; conditions: for effect on age-related decreases in the expression of GCLC: YC vs OC and OC vs old treated mice; for GCLC expression: diet supplemented from 14 to 30 months of age, old treated vs old controls (OC)
Excerpt: (§1) B6C3F1 mice were obtained and housed as in Example 1. For the young control (YC) group, starting at 8 weeks of age and continuing until 22 weeks of age, mice were maintained on the AIN93^M diet; For the old animal groups, starting at 14 months of age and continuing until 30 months of age, mice were either 1) maintained on the AIN93^M diet (old controls, OC); 2) fed a calorie or energy restricted (CR) diet providing 63 kcal/week of a modified AIN93^M formulation; or 3) were assigned to an AIN93^M diet supplemented with one of several plant extracts, vitamins or phytochemicals; the amount of each ingredient per kilogram diet varied depending on the experimental ingredient studied. At the end of the feeding period, tissues were collected from the gastrocnemius muscles of the mice, flash-frozen in liquid nitrogen and stored at −80° C. for later analysis.
To determine if CR or an ingredient opposed age-related declines in the Nrf2 pathway to regulate expression of xenobiotic metabolism genes and oxidative stress genes, we performed quantitative real-time PCR (RT-qPCR) analysis on RNA isolated from gastrocnemius muscle from all groups of mice. The magnitude of change was determined for each gene (YC vs. OC and OC vs Old treated mice). Two-tailed t-tests (assuming equal variance) were used to determine if the change in expression for individual genes was statistically significant. The magnitude of the change in expression is reported as “fold change” values which are log 2-adjusted to fit normality assumptions for statistical analyses.
A panel of 5 genes representative of the Nrf2 pathway was selected for screening the ingredients: GCLM, GCLC, GSR, GSTA1, and NQO1. Ingredients screened in the muscle included: alpha lipoic acid, CoQ10, Pomegranate, Resveratrol and others.

[1] = system: Nrf2/ARE/detoxification related genes; test: RT-qPCR gene expression screening in liver of young mice fed ingredient-supplemented diet; assay type: in vivo, C57BL/6J mice; conditions: diet supplemented from 8 to 22 weeks of age, treated vs young control (YC)
GSR = test: RT-qPCR expression of GSR in gastrocnemius muscle of old mice; assay type: in vivo, B6C3F1 mice
Excerpt: as §1, with “analysis. To determine if CR or an ingredient opposed age-related declines in the Nrf2 pathway to regulate expression of xenobiotic metabolism genes and oxidative stress genes, we performed quantitative real-time PCR (RT-qPCR) analysis on RNA isolated from gastrocnemius muscle from all groups of mice. The magnitude of change was determined for each gene (YC vs. OC and OC vs Old treated mice). Two-tailed t-tests (assuming equal variance) were used to determine if the change in expression for individual genes was statistically significant. […]” for “analysis.”

| Compound | change in iNOS/Nos2 expression in the lung (iNOS/Nos2) | effect on age-related decreases in the expression of GCLC (GCLC) | GCLC expression (GCLC) | gene expression changes in the liver (impact of ingredient) [1] | effect on age-related decreases in the expression of GSR (GSR; YC vs OC and OC vs old treated mice) | GSR expression (GSR; diet supplemented from 14 to 30 months of age, old treated vs OC) |
| --- | --- | --- | --- | --- | --- | --- |
| COC1=C(OC)C(=O)C(C/C=C(\C)CC/C=C(\C)CC/C=C(\C)CC/C=C(\C)CC/C=C(\C)CC/C=C(\C)CC/C=C(\C)CC/C=C(\C)CC/C=C(\C)CCC=C(C)C)=C(C)C1=O [CoQ10, coenzyme Q10] | Modest downregulation | opposed age related decreases | upregulated | – | – | – |
| O=C(O)CCCCC1CCSS1 (stereo not drawn) [alpha lipoic acid] | – | opposed age-related decreases | upregulated | greatest positive impact | opposed age-related decreases | upregulated |
| O=c1c(O)c(-c2ccc(O)c(O)c2)oc2cc(O)cc(O)c12 [quercetin, Quercetin] | Modest downregulation | – | – | – | – | – |
